{
  "source": "patent US12156889B2",
  "about": "“Methods of administering mesenchymal stem cells activated by cytokines for enhancing immunosuppression” (Rutgers, The State University of New Jersey, priority 2012, dated 2024)",
  "key": {"[1]": {"system": "peripheral blood mononuclear cell", "assay": "Peripheral blood mononuclear cell proliferation with human MSCs", "type": "cell-based", "settings": "side-by-side comparison mouse and human MSCs", "procedure": "In the present study, with T cell activation or when exogenous inflammatory cytokines are added, the T cells first enter cell cycle arrest and then die within 24 hours. It was also observed that this apoptosis was dependent on NO, since T cell apoptosis was not observed when iNOS inhibitors were used. Apoptosis was also absent when iNOS^−/− or IFNγ R1^−/− MSCs were used. Therefore, NO-induced cell cycle arrest and apoptosis of T cells are part of the mechanism of immunosuppression mediated by inflammatory cytokine-activated MSCs. Differences between species in inflammatory cytokine-induced expression of iNOS has been noted in macrophages (Schneemann & Schoedon. 2002) Nat. Immunol. 3(2):102). […] Thus, the roles of IDO and NO in the inhibition of T cell proliferation by MSCs from mouse and human were analyzed in a side-by-side comparison."}, "splenocytes": {"system": "splenocytes", "assay": "Anti-CD3-activated splenocyte proliferation in co-culture with MSCs", "type": "cell-based, mouse", "settings": "for effect on immunosuppression by MSCs: indomethacin 10 μM, anti-IL-10 20 μg/ml, anti-TGFβ 20 μg/ml, 1-MT 1 mM; for splenocyte proliferation in MSC co-culture with iNOS inhibitor: MSCs + splenocytes + anti-CD3", "procedure": "FIGS. 9A, 9B, 9C, 9D, 9E, 9F and 9G. […] Cloned MSCs were first treated with the indicated combinations of recombinant cytokines IFNγ, TNFα, IL-17A (2 ng/ml each) for 12 hr, then cocultured with CD4^+ T cell blasts at a 1:20 ratio (MSC:T cells), and proliferation was assessed by 3H-thymidine incorporation after an additional 12 hr. (FIG. 9B). The mRNA expression of IL-17 receptor family members in MSCs or Raw 264.7 (Macrophages) were examined by RT-PCR. NC: No RT. (FIG. 9C). Surface expression of IL-17RA was detected by immunofluoresence or flow cytometry in cloned MSCs. (FIGS. 9D and 9E). MSCs were first treated with IFNγ and TNFα with or without IL-17A (10 ng/ml), IFNγ and TNFα were supplemented at different cytokine concentrations, for 12 hr, and then cocultured with CD4^+ T cell blasts (FIG. 9D) or T cell hybridoma A1.1 cells (FIG. 9E) at a ratio of 1:20 for 12 hr. T cell proliferation was measured by 3H-Tdr incorporation. (FIG. 9F). MSCs were first treated with IFNγ and TNFα (2 ng/ml) with graded concentrations of IL-17A, for 12 hr, and then cocultured with T cell hybridoma A1.1 cells at a ratio of 1:10 for 12 hr. T cell proliferation was measured by 3H-thymidine incorporation. (FIG. 9G). MSCs were cocultured with fresh C57BL/6 splenocytes plus anti-CD3, anti-CD28, and antibodies against IL-17A, at a 1:20 or 1:40 ratio (MSCs:splenocytes), for 48 hr, and then cell proliferation was assessed by 3H-thymidine incorporation. Proliferation values represent means±SEM of three wells from a representative of three experiments.\nTo examine the possibility that cytokines induce the immunosuppressive capacity of MSCs, these culture conditions were reproduced by combining MSCs and fresh splenocytes at graded ratios in the presence of anti-CD3. […] The immunosuppressive capacity of MSC clones generated from different mouse strains was also examined.\nTo identify the mechanism through which immunosuppression by cytokine-exposed MSCs is effected, the response of anti-CD3-activated splenocytes co-cultured with MSCs (1:20, MSC:splenocytes) in a […] system was examined in various configurations.\nNitric oxide (NO) at high concentrations is known to inhibit T cell responses. It diffuses quickly from its source, but the concentration of the active form drops off within about 100 μm.\nProliferation assay—To assay T cell proliferation, 0.5 μCi of 3H-thymidine was added to each well of 96-well plates 6 hr before termination of the cultures by freezing. Plates were then thawed, cells were harvested, and incorporated 3H-Tdr was assessed with a Wallac Microbeta scintillation counter (Perkin-Elmer, Waltham, MA)."}, "F1 (C57BL/6xC3H) mice": {"system": "F1 (C57BL/6xC3H) mice", "assay": "Graft-versus-host disease (GvHD) model", "experimental": "Recipient mice (C57BL/6xC3H, F1) were lethally irradiated and injected i.v. with C57BL/6 bone marrow cells plus spleenocytes. On days 3 and 7 after bone marrow transplantation, recipients were administered with the indicated MSCs. For some wild-type MSC groups, L-NMMA, anti-IFNγ or a 3-antibody cocktail against TNFα, IL-1α, and IL-1β, (3 Abs) were injected i.p. Survival was monitored daily for 12 weeks.\nGvHD Induction and Modulation by MSCs. C57BL/6×C3H F1 mice at 8-weeks old were lethally irradiated (13 Gy) and after 24 hours were infused by tail vein injection with nucleated bone marrow cells (5×10^6) and splenocytes (5×10^6) isolated from C57BL/6 parent mice. On days 3 and 7 following bone marrow transplantation, the recipients were administrated with 0.5×10^6 MSCs derived from C57BL/6 wild-type, IFNγ R1^−/−, or iNOS^−/− mice via the tail vein. Some wild-type MSC groups were also injected i.p. with the iNOS inhibitor, NG-monomethyl L-arginine (L-NMMA, 500 μg/mouse), anti-IFNγ (400 μg/mouse), or a cocktail of three antibodies against TNFα, IL-1α and IL-1β (200 μg each/mouse) daily for 7 days starting immediately after the first MSC administration. As negative controls, the F1 mice were injected with F1 bone marrow cells. Mice were observed daily for GvHD signs (wasting, ruffled hair, and hunched back) and euthanized upon becoming moribund, thus marking survival time. […]"}, "CD4+ T cell blasts": {"system": "CD4+ T cell blasts", "assay": "T cell blast proliferation in co-culture with MSCs (3H-thymidine incorporation)", "type": "cell-based, mouse", "settings": "for induction of immunosuppression by MSCs with recombinant cytokines: 20 ng/ml each, MSC + T cell blasts or MSC + A1.1 cells, 1:20; for T cell proliferation after MSC treatment with low-concentration cytokines: 2 ng/ml each, 12 hr, then 1:20 MSC:T cells", "procedure": "FIG. 1. is a graph showing that immunosuppression by MSCs is induced by proinflammatory cytokines. Cloned MSCs were supplemented with the indicated combinations of recombinant cytokines (20 ng/ml each) for 8 hours, then co-cultured with CD4+ T cell blasts at a 1:20 ratio (MSC:T cells), and proliferation assessed after an additional 8 hours. Values represent means±SD of five wells from a representative of three experiments with different clones. * p<0.001.\nFIGS. 9A, 9B, 9C, 9D, 9E, 9F and 9G. (FIG. 9A). Cloned MSCs were first treated with the indicated combinations of recombinant cytokines IFNγ, TNFα, IL-17A (2 ng/ml each) for 12 hr, then cocultured with CD4^+ T cell blasts at a 1:20 ratio (MSC:T cells), and proliferation was assessed by 3H-thymidine incorporation after an additional 12 hr. (FIG. 9B). The mRNA expression of IL-17 receptor family members in MSCs or Raw 264.7 (Macrophages) were examined by RT-PCR. NC: No RT. (FIG. 9C). Surface expression of IL-17RA was detected by immunofluoresence or flow cytometry in cloned MSCs. (FIGS. 9D and 9E). MSCs were first treated with IFNγ and TNFα with or without IL-17A (10 ng/ml), IFNγ and TNFα were supplemented at different cytokine concentrations, for 12 hr, and then cocultured with CD4^+ T cell blasts (FIG. 9D) or T cell hybridoma A1.1 cells (FIG. 9E) at a ratio of 1:20 for 12 hr. T cell proliferation was measured by 3H-Tdr incorporation. (FIG. 9F). MSCs were first treated with IFNγ and TNFα (2 ng/ml) with graded concentrations of IL-17A, for 12 hr, and then cocultured with T cell hybridoma A1.1 cells at a ratio of 1:10 for 12 hr. T cell proliferation was measured by 3H-thymidine incorporation. (FIG. 9G). MSCs were cocultured with fresh C57BL/6 splenocytes plus anti-CD3, anti-CD28, and antibodies against IL-17A, at a 1:20 or 1:40 ratio (MSCs:splenocytes), for 48 hr, and then cell proliferation was assessed by 3H-thymidine incorporation. Proliferation values represent means±SEM of three wells from a representative of three experiments.\nT cell blasts were generated from CD4^+ T cells purified by negative selection with […] T cell subset isolation kits (R&D Systems). Cells (1×10^6 cells/ml) were activated by plastic-bound anti-CD3 and soluble anti-CD 28 for 48 hours, then cultured with IL-2 (200 U/ml) alone for 48 hours. All T cell cultures were maintained in RPMI-1640 medium supplemented with 10% heat-inactivated FBS, 2 mM glutamine, 100 U/ml penicillin, 100 μ·g/ml streptomycin, and […] (complete medium).\nSince most reported studies of immunosuppression by MSCs are based on their effects on T cell proliferation and cytokine production, the effect of MSCs was first examined on the IL-2-driven proliferation of T cell blasts. Fresh CD4^+ T cell blasts were generated from splenocytes by activation with anti-CD3 followed by expansion with IL-2 for several days (Devadas, et al. (2006) Immunity 25:237-247; Radvanyi, et al. (1996) Cell Immunol. 170:260-273). T cell blasts were added at a 1:20 ratio (MSC:T cells) along with IL-2 (200 U/ml). Cell proliferation was assessed by ^3H-Tdr incorporation after 8 hours. […] MSCs also had no effect on the proliferation of T hybridoma A1.1 cells. These T cells blasts and T hybridoma cells, however, produce no cytokines unless reactivated through the TCR (Fotedar, et al. (1985) J. Immunol. 135(5):3028-33). Thus, in the absence of T cell cytokines, MSCs were unable to suppress T cell proliferation.\nThe effect of IFNγ was then tested directly by adding isolated recombinant IFNγ (20 ng/ml) instead of activated splenocyte supernatant to the mixed co-cultures of MSC+ T cell blasts or MSC+A1.1 cells. […] Therefore, induction of the immunosuppressive function of MSCs by anti-CD3-activated splenocyte supernatant may be due to IFNγ acting in concert with either TNFα; IL-1α; or IL-1β on the MSCs. […]"}, "iNOS": {"system": "iNOS", "assay": "iNOS mRNA in MSCs by real-time PCR", "type": "cell-based, mouse", "settings": "20 ng/ml each", "procedure": "Real-Time PCR. RNA was isolated from cell pellets using an RNEASY Mini Kit. First-strand cDNA synthesis was performed using SENSISCRIPT RT Kit with random hexamer primers (all kits from Qiagen, Valencia, Calif.). mRNA of the genes of interest were quantified by real-time PCR (MX-4000 from Stratagene, La Jolla, Calif.) using SYBR Green Master Mix (Applied Biosystems, Foster City, Calif.). Total amount of mRNA was normalized to endogenous β-actin mRNA. Primers sequences for iNOS were: forward, 5′-CAGCTGGGCTGTACAAACCTT-3′ (SEQ ID NO:1); reverse, 5′-CATTGGAAGTGAAGCGTTTCG-3′ (SEQ ID NO:2). Other primers were from the RT2 PROFILER™ PCR Array Mouse Chemokines & Receptors kit (Superarray, Frederick, Md.).\nAccordingly, it was contemplated that MSCs could upregulate their expression of iNOS and produce NO after exposure to these cytokines. […] […] At 12 hours post-stimulation, the level of iNOS mRNA was more than 7 times greater than β actin message, indicative of extremely high expression."}},
  "data": [
    {"molecule": "Cn1cc(CC(N)C(=O)O)c2ccccc21", "note": "(racemic) [1-MT, 1-methyl-DL-tryptophan]", "values": [
      {"measurement": "effect on inhibition of peripheral blood mononuclear cell proliferation by human MSCs", "setting": "[1]", "result": "reversed"},
      {"measurement": "effect on immunosuppression by MSCs", "setting": "splenocytes", "result": "no effect"}
    ]},
    {"molecule": "COc1ccc2c(c1)c(CC(=O)O)c(C)n2C(=O)c1ccc(Cl)cc1", "note": "[indomethacin, Indomethacin]", "values": [
      {"measurement": "effect on immunosuppression by MSCs", "setting": "splenocytes", "result": "no effect"}
    ]},
    {"molecule": "COC(=O)[C@@H](N)CCCNC(=N)N[N+](=O)[O-]", "note": "[L-NAME]", "values": [
      {"measurement": "splenocyte proliferation in MSC co-culture with iNOS inhibitor", "setting": "splenocytes", "result": "same effect"}
    ]},
    {"molecule": "CNC(=N)NCCC[C@H](N)C(=O)O", "note": "[L-NMMA, N G-monomethyl-L-arginine]", "values": [
      {"measurement": "effect on protection by MSC (histology)", "setting": "F1 (C57BL/6xC3H) mice; 14 days after bone marrow transplantation", "result": "almost completely reversed"},
      {"measurement": "effect on MSC-mediated protection from GvHD (survival)", "setting": "F1 (C57BL/6xC3H) mice; i.p. daily for 7 days after wild-type MSC infusion", "result": "significant reversal"},
      {"measurement": "splenocyte proliferation in MSC co-culture with iNOS inhibitor", "setting": "splenocytes", "result": "completely restored"},
      {"measurement": "effect on immunosuppression by mouse MSCs", "setting": "splenocytes; side-by-side comparison mouse and human MSCs", "result": "completely reversed"}
    ]},
    {"molecule": "GM-CSF: Granulocyte-macrophage colony-stimulating factor", "values": [
      {"measurement": "induction of immunosuppression by MSCs with recombinant cytokines", "setting": "CD4+ T cell blasts", "result": "no effect"}
    ]},
    {"molecule": "IFNγ: recombinant mouse interferon-gamma (protein) HGTVIESLESLNNYFNSSGIDVEEKSLFLDIWRNWQKDGDMKILQSQIISFYLRLFEVLKDNQAISNNISVIESHLITTFFSNSKAKKDAFMSIAKFEVNNPQVQRQAFNELIRVVHQLLPESSLRKRKRSRC", "values": [
      {"measurement": "iNOS mRNA upregulation in MSCs by recombinant cytokines", "setting": "iNOS", "result": "ineffective"},
      {"measurement": "T cell proliferation after MSC treatment with low-concentration cytokines", "setting": "CD4+ T cell blasts", "result": "cannot induce immunosuppression"},
      {"measurement": "induction of immunosuppression by MSCs with recombinant cytokines", "setting": "CD4+ T cell blasts", "result": "did not induce immunosuppression"}
    ]},
    {"molecule": "IL-6: Interleukin-6 (protein, UniProt P08505 25-211, looked up) Interleukin-6: FPTSQVRRGDFTEDTTPNRPVYTTSQVGGLITHVLWEIVEMRKELCNGNSDCMNNDDALAENNLKLPEIQRNDGCYQTGYNQEICLLKISSGLLEYHSYLEYMKNNLKDNKKDKARVLQRDTETLIHIFNQEVKDLHKIVLPTPISNALLTDKLESQKEWLRTKTIQFILKSLEEFLKVTLRSTRQT", "values": [
      {"measurement": "induction of immunosuppression by MSCs with recombinant cytokines", "setting": "CD4+ T cell blasts", "result": "no effect"}
    ]},
    {"molecule": "TNFα: recombinant mouse tumor necrosis factor-alpha (protein) LRSSSQNSSDKPVAHVVANHQVEEQLEWLSQRANALLANGMDLKDNQLVVPADGLYLVYSQVLFKGQGCPDYVLLTHTVSRFAISYQEKVNLLSAVKSPCPKDTPEGAELKPWYEPIYLGGVFQLEKGDQLSAEVNLPKYLDFAESGQVYFGVIAL", "values": [
      {"measurement": "iNOS mRNA upregulation in MSCs by recombinant cytokines", "setting": "iNOS", "result": "ineffective"},
      {"measurement": "T cell proliferation after MSC treatment with low-concentration cytokines", "setting": "CD4+ T cell blasts", "result": "cannot induce immunosuppression"}
    ]},
    {"molecule": "IFNβ: type I IFN, printed as IFNα or β (protein, UniProt P01575 22-182, looked up) Interferon beta: INYKQLQLQERTNIRKCQELLEQLNGKINLTYRADFKIPMEMTEKMQKSYTAFAIQEMLQNVFLVFRNNFSSTGWNETIVVRLLDELHQQTVFLKTVLEEKQEERLTWEMSSTALHLKSYYWRVQRYLKLMKYNSYAWMVVRAEIFRNFLIIRRLTRNFQN", "values": [
      {"measurement": "MSC-mediated immunosuppression in MSC+splenocyte+anti-CD3 system", "setting": "splenocytes", "result": "strikingly inhibited"}
    ]}
  ]
}
